Reference: PubChem BioAssay (NCI)
“And” between values parts separate entries of the source, which are not always exact repeats. Identical values can stand only once.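 48-hour exposure; five concentrations; linearly interpolated endpoints. The concentration for 50% growth inhibition is given as GI50. TGI is the concentration that stops growth completely.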

How the values were obtained:
Experiment in all cases: NCI tumour cell line growth inhibition, 48 h
A549 NSCLC = system: A549 NSCLC
BT-549 breast = system: BT-549 breast
DU-145 prostate = system: DU-145 prostate
HOP-62 NSCLC = system: HOP-62 NSCLC
KM12 colon = system: KM12 colon
M14 melanoma = system: M14 melanoma
NCI-H460 lung = system: NCI-H460 lung
SF-539 CNS = system: SF-539 CNS
SK-MEL-5 melanoma = system: SK-MEL-5 melanoma
SNB-75 CNS = system: SNB-75 CNS

| SMILES | GI50 (A549 NSCLC) [µM] | TGI (A549 NSCLC) | GI50 (BT-549 breast) [µM] | TGI (BT-549 breast) | GI50 (DU-145 prostate) [µM] | TGI (DU-145 prostate) [µM] | GI50 (HOP-62 NSCLC) [µM] | TGI (HOP-62 NSCLC) [µM] | GI50 (KM12 colon) | TGI (KM12 colon) [µM] | GI50 (M14 melanoma) [µM] | TGI (M14 melanoma) [µM] | GI50 (NCI-H460 lung) [µM] | TGI (NCI-H460 lung) | GI50 (SF-539 CNS) [µM] | TGI (SF-539 CNS) [µM] | GI50 (SK-MEL-5 melanoma) [µM] | TGI (SK-MEL-5 melanoma) | GI50 (SNB-75 CNS) [µM] | TGI (SNB-75 CNS) [µM] |
| --- | --- | --- | --- | --- | --- | --- | --- | --- | --- | --- | --- | --- | --- | --- | --- | --- | --- | --- | --- | --- |
| O=C(CCCCCNC1=CC(=O)c2ccccc2C1=O)NCCC[Te]c1ccccc1 | 0.32 | 1.54 µM | 0.297 | 0.916 µM | 0.43 | 1.9 | 0.272 | 0.731 | 0.351 µM | 1.3 | 0.473 | 1.86 | 0.197 | 0.576 µM | 0.618 | 2.15 | 1.37 | 2.67 µM | 0.29 | 1.48 |
| C[C@@H](Oc1cc(-c2cnn(C3CC4(CNC4)C3)c2)cnc1N)c1c(Cl)ccc(F)c1Cl | 3.09 | 12.6 µM | 6.49 | 19.4 µM | 5.45 | 18.1 | 2.3 | 13.4 | 0.111 µM | 7.42 | 1.57 | 3.37 | 1.98 | 13.7 µM | 2.51 | 7.89 | 3.92 | 12.2 µM | 2.44 | 9.29 |
| COc1ccc(C2=NNC(c3cc(Cc4ccc(O)c(C5CC(c6ccc(OC)cc6)=NN5)c4)ccc3O)C2)cc1 (centres undefined) | 6.84 | > 100 µM | 4.66 | 51.6 µM | 29.8 | > 100 | 8.64 | > 100 | 22.6 µM | > 100 | 10.4 | 38.3 | 4.88 | > 100 µM | 22.4 | > 100 | 1.76 | 6.4 µM | 4.98 | > 100 |
| O=C(N/N=C/c1ccncc1)c1ccc(C(F)(F)F)nc1Nc1cccc(C(F)(F)F)c1 | 3.12 | 10.9 µM | 0.613 | 3.59 µM | 2.59 | 6.83 | 2 | 7.29 | 3.23 µM | 12.4 | 1.34 | 4.03 | 2.84 | 10.4 µM | 2.6 | 9.5 | 2.81 | 11.7 µM | 4.34 | 17 |
| Nc1cccc2c1CN(C1CCC(=O)NC1=O)C2=O (centres undefined) | > 100 | > 100 µM | > 100 | > 100 µM | > 100 | > 100 | > 100 | > 100 | > 100 µM | > 100 | > 100 | > 100 | > 100 | > 100 µM | > 100 | > 100 | > 100 | > 100 µM | > 100 | > 100 |
| Cc1cc(Br)c2nsnc2c1[N+](=O)[O-] | 4.13 | 17.3 µM | 3.95 | 12 µM | 1.66 | 3.09 | 4.59 | 16.3 | 0.245 µM | 0.665 | 1.77 | 3.32 | 3.15 | 10.7 µM | 3.1 | 11.2 | 3.88 | 13.8 µM | 3.46 | 15.4 |
| C=C1C(=O)O[C@H]2[C@H]1CC/C(COC(=O)c1cccc3ccccc13)=C\CC[C@@]1(C)O[C@@H]21 | 2.12 | 5.4 µM | 1.05 | 2.37 µM | 1.5 | 2.86 | 1.76 | 3.68 | 2.07 µM | 4.99 | 1.42 | 3.21 | 2.16 | 4.84 µM | 1.29 | 2.7 | 1.62 | 2.98 µM | 3.04 | 13.3 |
| O=[N+]([O-])c1ccc(N/N=C/c2ccccc2O)nc1 | 2.07 | > 100 µM | 6.08 | > 100 µM | 1.35 | > 100 | 4.5 | > 100 | 1.19 µM | > 100 | 1.66 | > 100 | 1.02 | > 100 µM | 2.68 | > 100 | 1.61 | > 100 µM | 10.6 | > 100 |
| O=C(O)c1ccccc1-c1ccccc1C(=O)Nc1ccc2c(c1)Cc1ccccc1-2 | – | 97.5 µM | – | 69.4 µM | – | > 100 | – | > 100 | – | > 100 | – | 41.6 | – | 38.1 µM | – | 44.6 | – | 31.6 µM | – | > 100 |
| CCOC(=O)C1=C(C)NC(C)=C(C(=O)OCC)C1c1cc(Br)c(O)c(OC)c1 | 4.11 | 18.8 µM | 2.8 | 10.6 µM | 3.88 | 13.1 | 4.37 | 14.7 | 3.74 µM | 14 | 3.05 | 10.1 | 3.98 | 14.4 µM | 2.64 | 7.07 | 3.61 | 14.6 µM | 1.85 | 7.14 |
| CCOC(=O)c1c(C(F)(F)F)n([O-])c2ccc(Cl)cc2[n+]1=O | 4.14 | 17.1 µM | 2.02 | 4.95 µM | 1.93 | 3.5 | 1.88 | 3.47 | 2.07 µM | 3.8 | 2.02 | 4.48 | 2.05 | 3.99 µM | 1.74 | 3.21 | 1.51 | 2.96 µM | 1.43 | 5.36 |
| CC[C@@]1(O)C(=O)OCc2c1cc1n(c2=O)Cc2cc3c(Cl)c4c(cc3nc2-1)OCO4 | < 0.001 | 1.68 µM and 3.7 µM | < 0.001 | 0.897 µM and 0.382 µM | < 0.001 | > 100 | < 0.001 | – | 0.162 µM and 0.108 µM | > 100 | < 0.001 | 4.02 | < 0.001 | 0.279 µM and 0.382 µM | < 0.001 | 0.0924 | < 0.001 | 0.0323 µM and 0.159 µM | 0.00288 | > 100 |
| Cc1cc2oc(=O)c(Cl)c(Cl)c2c(C)c1Cl | – | 37.3 µM | – | 39 µM | – | 27.8 | – | 66 | – | 29.4 | – | 22.4 | – | 59.9 µM | – | 21.4 | – | 19.2 µM | – | 25.2 |
